According to US20110039721A1, “METHOD FOR PREDICTION ABOUT CARCINOGENICITY OF SUBSTANCE IN RODENT” (Chemicals Evaluation and Research Institute, priority 2007, published 2011):

Tested on: mRNA expressed from the genes (A) to (D) in rat liver
Experiment: Behavior of genes (mRNA expression level, oligo-DNA microarray) in rat liver after 28-day oral administration
Format: in vivo
Experimental: A test solution was prepared by dissolving each of the carcinogens and the non-carcinogens shown in Tables 2 to 6 in the corresponding solvent shown in Tables 2 to 6. Each of the thus prepared test solutions and the solvents used for the preparation was administered by oral gavage to rats in each group. As the rats, male rats (F344 SPF rats) at 5 weeks of age obtained from Charles River Laboratories Japan, Inc. were used. The animals were divided into groups, each containing four individuals. The volume of the solvent administered to the vehicle control group was set to the same volume as that of the test solution administered to the carcinogen administration group or the non-carcinogen administration group. The administration of the test solution or the solvent was performed once daily for 28 days. Apiece was excised from the liver of each of the rats after a lapse of 28 days from the initiation of the administration, and the total RNA was extracted and purified.
The expression level of mRNA was compared between each of the chemical substance administration groups and the corresponding vehicle control group, and genes that satisfy the requirements described in (A) to (D) were selected, respectively.
The case where the expression level of mRNA in the carcinogen administration group or the non-carcinogen administration group is 1.5 times or more or 1/1.5 or less of the expression level of the corresponding mRNA expressed in the control group was determined to be significant. In this connection, the determination as to whether or not the change is significant was performed by taking into consideration the direction of increase or decrease in the expression level. In the case where the direction of increase or decrease is different as compared with the case where another carcinogen was administered, the change was determined to be not significant.

[1] = gene group (A), Unigene No. Rn.167075
[2] = gene group (C), Unigene No. Rn.120914
[3] = (C), Unigene Rn.120914, defined direction +, rat liver, oral once daily 28 days

O=C1O[C@H]([C@@H](O)CO)C(O)=C1O [TS010, L-Ascorbic acid]
Behavior of gene caused by administration of chemical substance, Gene No. 4846 (gene group (A), Unigene No. Rn.144554): −
Behavior of gene caused by administration of chemical substance, Gene No. 2026 [1]: −
Behavior of gene caused by administration of chemical substance, Gene No. 4218 [1]: −
Behavior of gene caused by administration of chemical substance, Gene No. 6182 (gene group (A), Unigene No. Rn.5834): −
Behavior of gene caused by administration of chemical substance, Gene No. 5600 (gene group (A), Unigene No. Rn.9836): −
Behavior of gene caused by administration of chemical substance, Gene No. 1494 (gene group (B), Unigene No. Rn.1430): −
Behavior of gene caused by administration of chemical substance, Gene No. 2045 (gene group (B), Unigene No. Rn.19329): −
Behavior of gene caused by administration of chemical substance, Gene No. 2203 (gene group (B), Unigene No. Rn.21240): −
Behavior of gene caused by administration of chemical substance, Gene No. 533 (gene group (C), Unigene No. Rn.106184): −
Behavior of gene caused by administration of chemical substance, Gene No. 725 (gene group (C), Unigene No. Rn.108075): −
Behavior of gene caused by administration of chemical substance, Gene No. 1163 (gene group (C), Unigene No. Rn.11766): −
Behavior of gene caused by administration of chemical substance, Gene No. 4973 (gene group (C), Unigene No. Rn.118529): −
Behavior of gene caused by administration of chemical substance, Gene No. 4095 (gene group (C), Unigene No. Rn.119024): −
Behavior of gene caused by administration of chemical substance, Gene No. 1334 [2]: −
Behavior of gene caused by administration of chemical substance, Gene No. 6620 [2]: −
Behavior of gene caused by administration of chemical substance, Gene No. 6303 (gene group (C), Unigene No. Rn.123063): −
Behavior of gene caused by administration of chemical substance, Gene No. 5878 (gene group (C), Unigene No. Rn.143213): −
Behavior of gene caused by administration of chemical substance, Gene No. 1131 (gene group (C), Unigene No. Rn.144946): +
Behavior of gene caused by administration of chemical substance, Gene No. 1562 (gene group (C), Unigene No. Rn.14744): −
Behavior of gene caused by administration of chemical substance, Gene No. 1741 (gene group (C), Unigene No. Rn.1647): −
Behavior of gene caused by administration of chemical substance, Gene No. 893 (gene group (C), Unigene No. Rn.164817): −
Behavior of gene caused by administration of chemical substance, Gene No. 6026 (gene group (C), Unigene No. Rn.167685): −
Behavior of gene caused by administration of chemical substance, Gene No. 154 (gene group (C), Unigene No. Rn.185941): −
Behavior of gene caused by administration of chemical substance, Gene No. 1993 (gene group (C), Unigene No. Rn.18728): −
Behavior of gene caused by administration of chemical substance, Gene No. 813 (gene group (C), Unigene No. Rn.201760): −
Behavior of gene caused by administration of chemical substance, Gene No. 2494 (gene group (C), Unigene No. Rn.23969): −
Behavior of gene caused by administration of chemical substance, Gene No. 2546 (gene group (C), Unigene No. Rn.24561): −
Behavior of gene caused by administration of chemical substance, Gene No. 3776 (gene group (C), Unigene No. Rn.43232): −
Behavior of gene caused by administration of chemical substance, Gene No. 3929 (gene group (C), Unigene No. Rn.4620): −
Behavior of gene caused by administration of chemical substance, Gene No. 1119 (gene group (C), Unigene No. Rn.9757): −
Behavior of gene caused by administration of chemical substance, Gene No. 6742 (gene group (C), Unigene No. Rn.9779): −
Behavior of gene caused by administration of chemical substance, Gene No. 5634 (gene group (C), Unigene No. Rn.9862): −
Behavior of gene caused by administration of chemical substance, Gene No. 5726 (gene group (D), Unigene No. Rn.9939): −

CC(C)[N+](=O)[O-] [TS013, 2-Nitropropane]
Behavior of gene caused by administration of chemical substance, Gene No. 4846 ((A), Unigene Rn.144554, defined direction +, rat liver, oral once daily 28 days): +
Behavior of gene caused by administration of chemical substance, Gene No. 4218 ((A), Unigene Rn.167075, defined direction +, rat liver, oral once daily 28 days, significant = 1.5 times or more or 1/1.5 or less of control): +
Behavior of gene caused by administration of chemical substance, Gene No. 2026 ((A), Unigene Rn.167075, defined direction −, rat liver, oral once daily 28 days): +
Behavior of gene caused by administration of chemical substance, Gene No. 6182 ((A), Unigene Rn.5834, defined direction +, rat liver, oral once daily 28 days): +
Behavior of gene caused by administration of chemical substance, Gene No. 5600 ((A), Unigene Rn.9836, defined direction +, rat liver, oral once daily 28 days): +
Behavior of gene caused by administration of chemical substance, Gene No. 1494 ((B), Unigene Rn.1430, defined direction −, rat liver, oral once daily 28 days): +
Behavior of gene caused by administration of chemical substance, Gene No. 2045 ((B), Unigene Rn.19329, defined direction +, rat liver, oral once daily 28 days): −
Behavior of gene caused by administration of chemical substance, Gene No. 2203 ((B), Unigene Rn.21240, defined direction +, rat liver, oral once daily 28 days): −
Behavior of gene caused by administration of chemical substance, Gene No. 533 ((C), Unigene Rn.106184, defined direction +, rat liver, oral once daily 28 days): +
Behavior of gene caused by administration of chemical substance, Gene No. 725 ((C), Unigene Rn.108075, defined direction −, rat liver, oral once daily 28 days): +
Behavior of gene caused by administration of chemical substance, Gene No. 1163 ((C), Unigene Rn.11766, defined direction +, rat liver, oral once daily 28 days): −
Behavior of gene caused by administration of chemical substance, Gene No. 4973 ((C), Unigene Rn.118529, defined direction −, rat liver, oral once daily 28 days): +
Behavior of gene caused by administration of chemical substance, Gene No. 4095 ((C), Unigene Rn.119024, defined direction −, rat liver, oral once daily 28 days): −
Behavior of gene caused by administration of chemical substance, Gene No. 1334 [3]: −
Behavior of gene caused by administration of chemical substance, Gene No. 6620 [3]: −
Behavior of gene caused by administration of chemical substance, Gene No. 6303 ((C), Unigene Rn.123063, defined direction −, rat liver, oral once daily 28 days): +
Behavior of gene caused by administration of chemical substance, Gene No. 5878 ((C), Unigene Rn.143213, defined direction −, rat liver, oral once daily 28 days): −
Behavior of gene caused by administration of chemical substance, Gene No. 1131 ((C), Unigene Rn.144946, defined direction −, rat liver, oral once daily 28 days): −
Behavior of gene caused by administration of chemical substance, Gene No. 1562 ((C), Unigene Rn.14744, defined direction −, rat liver, oral once daily 28 days): +
Behavior of gene caused by administration of chemical substance, Gene No. 1741 ((C), Unigene Rn.1647, defined direction −, rat liver, oral once daily 28 days): −
Behavior of gene caused by administration of chemical substance, Gene No. 893 ((C), Unigene Rn.164817, defined direction +, rat liver, oral once daily 28 days): −
Behavior of gene caused by administration of chemical substance, Gene No. 6026 ((C), Unigene Rn.167685, defined direction −, rat liver, oral once daily 28 days): −
Behavior of gene caused by administration of chemical substance, Gene No. 154 ((C), Unigene Rn.185941, defined direction −, rat liver, oral once daily 28 days): +
Behavior of gene caused by administration of chemical substance, Gene No. 1993 ((C), Unigene Rn.18728, defined direction −, rat liver, oral once daily 28 days): +
Behavior of gene caused by administration of chemical substance, Gene No. 813 ((C), Unigene Rn.201760, defined direction +, rat liver, oral once daily 28 days): −
Behavior of gene caused by administration of chemical substance, Gene No. 2494 ((C), Unigene Rn.23969, defined direction +, rat liver, oral once daily 28 days): −
Behavior of gene caused by administration of chemical substance, Gene No. 2546 ((C), Unigene Rn.24561, defined direction −, rat liver, oral once daily 28 days): −
Behavior of gene caused by administration of chemical substance, Gene No. 3776 ((C), Unigene Rn.43232, defined direction −, rat liver, oral once daily 28 days): −
Behavior of gene caused by administration of chemical substance, Gene No. 3929 ((C), Unigene Rn.4620, defined direction +, rat liver, oral once daily 28 days): −
Behavior of gene caused by administration of chemical substance, Gene No. 1119 ((C), Unigene Rn.9757, defined direction +, rat liver, oral once daily 28 days): −
Behavior of gene caused by administration of chemical substance, Gene No. 6742 ((C), Unigene Rn.9779, defined direction +, rat liver, oral once daily 28 days): −
Behavior of gene caused by administration of chemical substance, Gene No. 5634 ((C), Unigene Rn.9862, defined direction −, rat liver, oral once daily 28 days): −
Behavior of gene caused by administration of chemical substance, Gene No. 5726 ((D), Unigene Rn.9939, defined direction −, rat liver, oral once daily 28 days): −
